Assay results published in patent publication US12263144B2, “Methods of treating IgA nephropathy with thiol-containing molecules” (Accubit LLC—Biotechnology, priority 2020, dated 2025).

What was measured:
Rat rIgA (poly-rIgA) = test: SEC determination of poly- and mono-rIgA content of rat rIgA after treatment; assay type: biochemical; conditions: 1 h 37° C., PBS, SEC AUC
Experimental: The overall complex size of IgA aggregates was determined either by size-exclusion chromatography (SEC: Superdex 200 Increase 10/300 by GL Cytiva), or by SDS-PAGE. For evaluating the involvement of intermolecular disulfide connectivity in IgA complexes, IgA samples were treated with either reducing agents, such as DTT, TCEP or reduced glutathione (Sigma), or interventional drugs, such as cysteamine (Sigma), WR-1065 (Sigma) and N-Acetyl-L-cysteine (VWR Chemicals) in phosphate-buffered saline (PBS) pH7.4. Before running on SEC, samples were treated with the drugs at indicated concentrations at 37° C. for one hour.
In the meantime, the SEC column was also equilibrated with PBS supplemented with the reducing agent at the same concentration. For running SEC, 100 μL of the recombinant IgA (concentration varies between 1 mg/mL and 8 mg/mL) or purified native human IgA1 (˜1 mg/mL) was loaded to the column and UV absorption was recorded following elution. […] The ratios between poly-rIgA and mono-rIgA were calculated as between the corresponding areas under the curve (AUC), and the treatment effect of the thiol agents was judged by the reduction of the poly-rIgA level with a compensatory increase of the mono-rIgA content.
To further investigate specific cysteine residue(s) involved in IgA complexes, expression vectors were constructed to produce recombinant IgA (rIgA) Fc segments of rat and human sequences (FIG. 2, part A) as discussed above. Rat IgA analogs were expressed in BL21 DE3 strain of E. coil and recombinant protein were purified from the bacterial lysate using Histrap HP columns (GE Healthcare) by running fast protein liquid chromatography (FPLC). Human recombinant IgA mimetics were produced from human embryo kidney (HEK293) cells by transfection of the expressing plasmids. Recombinant IgA proteins expressed by the cells were secreted into the culture medium, and they were subsequently purified by Histrap HP columns by FPLC using standard procedures. […] Rat rIgA was produced from bacterial expression as discussed above.
Cysteamine (Cy), an aminothiol that can react with cysteine, is both a natural metabolite produced in mammalian cells and a clinical drug used for treatment of cystinosis. In cystinosis, cysteamine reduces the disulfide bond in cystine, which is the oxidated dimer of amino acid cysteine (FIG. 4, part A). In the context of cysteine residues in proteins, endogenous cysteamine as well as the therapeutic drug forms mixed disulfides with susceptible cysteine sulfhydryl groups in a process called cysteamination (FIG. 4, part B). It was sought to determine whether cysteamine could reduce Cys471-disulfides to disaggregate poly-IgA. Rat rIgA (SEQ ID NO.4) was treated with various concentrations of cysteamine for one hour at 37° C. in phosphate buffered saline at neutral pH and the protein complexes were analyzed by SEC. The SEC column (model: Superdex 200 Increase 10/300 GL by Cytiva) was preequilibrated with the same buffer supplemented with the same concentration of cysteamine.

[1] = system: glomerular rIgA deposition; test: Passive rat model of IgA deposition (rat rIgA injection), glomerular immunofluorescence; assay type: in vivo, Wistar rats; conditions: rats, 250 mg/kg s.c. daily 2 h before rIgA i.v., 5 days, n=3; control 1384±290
Experimental: To establish the passive rat model, 5 mg/kg.BW recombinant rat rIgA, which contained a fraction of poly-rIgA, were i.v. injected daily to six 14-weeks old male Wistar rats (Charles River Labs, USA) for 5 consecutive days. Every day, three rats in each group had received a subcutaneous dose of either 250 mg/kg cysteamine, or buffer control, two hours before the rIgA injection. Twenty-four hours after the last injection of rIgA, kidneys were collected for immunofluorescence detection of deposits with goat-anti-rat IgA antibody (Cat: STAR111, Biorad laboratory). Similarly, a passive IgA nephrophathy mouse model was established by injecting 35 mg/kg purified human IgA1 in BALB/c mice (Charles River Labs). Two hours before IgA1 injection, six mice in each experimental group had each received a pretreatment dose of either 200 mg/kg cysteamine, or PBS, via subcutaneous injection. Two and a half hours after human IgA1 injection, kidneys were harvested, and specimens were stained with FITC-conjugated anti-human IgA antibody (Cat: 2050-02, SouthernBiotech). Plasma samples were collected at 0.5 h, 1 h and 2 h after IgA1 injection of all mice.
Frozen tissues were sectioned at 4 μm for IgA detection using goat anti-rat IgA (Cat: STAR111, Bio-Rad Laboratories) at 1:100, or anti-human IgA antibody (Cat: 2050-02, […]) at 1:80 dilution. […]

SMILES: NCCS [cysteamine]
- Mono-IgA (%) (Rat rIgA (poly-rIgA); cysteamine 0.1 mM): 81.85%
- Poly-IgA (%) (Rat rIgA (poly-rIgA); cysteamine 0.1 mM): 18.15%
- Mono-IgA (%) (Rat rIgA (poly-rIgA); cysteamine 1 mM): 89.57%
- Poly-IgA (%) (Rat rIgA (poly-rIgA); cysteamine 1 mM): 10.43%
- Mono-IgA (%) (Rat rIgA (poly-rIgA); cysteamine 5 mM): 93.59%
- Poly-IgA (%) (Rat rIgA (poly-rIgA); cysteamine 5 mM): 6.414%
- Mono-IgA (%) (Rat rIgA (poly-rIgA); cysteamine 10 mM): 93.24%
- Poly-IgA (%) (Rat rIgA (poly-rIgA); cysteamine 10 mM): 6.759%
- quantitation of rIgA deposit in glomeruli (Mean±SEM immunofluorescence intensity) [1]: 523±76
